A melting point compilation (Tetko et al.; mined from patent text by program, amines drawn as free bases though some values may be those of a salt)

Row | SMILES | melting point
1 | COc1nc(C)cnc1NS(=O)(=O)c1cnccc1-c1ccc(CC(C)C)cc1 | 232 to 233 °C
2 | Cn1nc2c(N)nc3c(c2c1CCC1CCCCC1)CCCC3 | 230 to 231 °C
3 | O=c1[nH]c(CCc2ccccc2OCc2ccccc2)ccc1-c1nnn[nH]1 | 211 to 213 °C
4 | COc1ccc2cc(C3=C(CC(=O)O)CCCC3=O)ccc2c1Br | 165 to 166 °C
5 | CC(C(=O)N(C)C)n1ccc(-c2cccs2)n1 (stereo unspecified) | 95 to 97 °C
6 | Cc1cc([N+](=O)[O-])ccc1NC(=O)c1cc(C(C)(C)C)ccc1O | 202 to 204 °C
7 | COC(=O)c1ccc2[nH]cc(Cc3ccc(OCc4ccc5ccccc5n4)cc3)c2c1 | 179 to 180 °C
8 | O=C(N[C@@H]1CN2C(=O)N(c3cc(Cl)nc(Cl)c3)C(=O)[C@@]2(Cc2ccc(OC(F)(F)F)cc2)C1)c1ccncc1 | 148 °C
9 | COc1cccc(N(CC(=O)N(C)c2ccccc2)C(=O)CN2C(=O)c3ccccc3C2=O)c1 | 137 °C
10 | Cc1cc(N2CCC(CN3CCN(S(=O)(=O)c4ccc(Br)cc4)CC3)CC2)nc(C)n1 | 73 to 74 °C
11 | C[C@]1(CN2CCN(NCc3ccc(C(F)(F)F)cc3)CC2)Cn2cc([N+](=O)[O-])nc2O1 | 131 to 136 °C
12 | Cc1oc(-c2ccccc2)nc1COc1ccc(Cn2cc(/C=C/C(=O)O)cn2)cc1 | 186 to 187 °C
13 | C#CCNC(=O)c1ncn2c1CN(C)C(=O)c1cc(F)ccc1-2 | 205 to 206 °C
14 | O=C(CCl)Cc1ccc(Cl)cc1 | 40.5 to 45.5 °C
15 | COc1ccc(-c2ccc(O)cc2C=O)cc1Cl | 168 to 170 °C
16 | NC(C(=O)O)c1ccc(C(=O)O)cc1SCc1ccccc1 (stereo unspecified) | 226 °C
17 | COc1ccc2c(c1)c(CC(=O)OCc1cccnc1)c(C)n2C(=O)c1ccc(Cl)cc1 | 116 to 118 °C
18 | Cc1ccc2c(c1)Oc1sc(C)cc1C(N1CCN(C)CC1)=N2 | 149 to 150 °C
19 | CN1C(=O)C2CC(c3ccc(N)cc3)(C2)C1=O | 197 to 198 °C
20 | CCCCn1c(=O)c2c(cnn2S(=O)(=O)CCC)n(CCCC)c1=O | 44 to 48 °C
21 | COC(=O)c1cc(N=Cc2ccccc2)ccc1O | 58 to 59 °C
22 | COCNC(=O)OC(C(=O)OC)P(C)(C)=O (stereo unspecified) | 101 °C
23 | CCOc1cc2c(cc1O)C(C(Cl)(Cl)Cl)OC2=O (stereo unspecified) | 143 to 144 °C
24 | N#CCCNC(=O)Cc1c(C(=O)c2ccccc2)[nH]c2cc(Cl)ccc12 | 233 to 234 °C
25 | CCC(CC)C(NS(=O)(=O)c1ccc(Cl)s1)c1ncnn1Cc1ccc(C)cc1 (stereo unspecified) | 103 to 104 °C
26 | CCCOc1cc(-c2c(C(=O)OCC)c(Cn3cncn3)nc3cc(OC)c(OC)cc23)ccc1OC | 127 to 128 °C

Row | SMILES | melting point
27 | CC(=O)C=Cc1ccc(NS(C)(=O)=O)c(Oc2ccc(F)cc2F)c1 | 130 to 132 °C
28 | CCc1cc(O)c2cccc(OC)c2n1 | 190 to 192 °C
29 | O=C(CCc1cccnc1)NCCCCC1CCN(C2c3ccccc3COc3ccccc32)CC1 (stereo unspecified) | 110 to 112 °C
30 | CCCc1c(-c2ccc(C(=O)OC)cc2)oc2cc(S(=O)(=O)Cl)ccc2c1=O | 128 °C
31 | Cc1cccc(-c2nc(Cl)cc(Cl)n2)c1 | 80 to 81 °C
32 | Cc1ccc2c(c1)c(N1CCNCC1)c(C#N)c(=O)n2Cc1ccc(F)cc1 | 121 °C
33 | CC1(C)CCCC(Cl)(Cl)C(=O)N1 | 148 to 155 °C
34 | Cc1cnc(-c2ssc(=S)c2C)cn1 | 162 to 163 °C
35 | COc1cc2cc(CO)c(CO)c(-c3ccnc(-n4nc(O)c5ccccc5c4=O)c3)c2cc1OC | > 250 °C
36 | COc1cc2c(=O)n(CCN3CCCC3)c3c4cc5c(cc4nnc3c2cc1OC)OCO5 | 229 °C
37 | CC(=O)N1CCN(C(C)=O)C1=Nc1ccc(Cl)cc1Cl | 113 to 115 °C
38 | Cc1cc2c(s1)C(C(=O)Nc1ccccc1)C(=O)N(C)S2(=O)=O (stereo unspecified) | 182 to 184 °C
39 | CCOC(=O)Oc1c(OC)cc(C=CC(=O)Nc2cnc3c(C)cc(C)cc3c2-c2ccccc2Cl)cc1OC | 228 to 229 °C
40 | NS(=O)(=O)c1ccccc1CCl | 156 to 158 °C
41 | O=C(C=Cc1ccc(F)cc1)C(=O)Nc1ccc(C(F)(F)F)cc1 | 200 to 201 °C
42 | CCCc1nc2c(N)nc3ccc(-c4cccc(CN)c4)cc3c2s1 | 189 to 191 °C
43 | O=C1COCCN1c1ccc(N2C[C@@H](CI)OC2=O)cc1 | 154 to 157 °C
44 | CCn1c(=O)c2c(nc(/C=C/c3cc4c(cc3Br)OCO4)n2C)n(CC)c1=O | 255 to 256 °C
45 | O=S(=O)(c1ccccc1)n1c(-c2c(F)cccc2F)nc2ccccc21 | 104 to 106 °C
46 | CCNC(=O)N1CCC(c2cc(F)ccc2F)(S(=O)(=O)c2ccc(Cl)cc2)CC1 | 172 to 174 °C
47 | CCCCCC(=O)Nc1ncc(OC)cn1 | 102 °C
48 | C=C1CC(Cn2cc(C)c(=O)[nH]c2=O)(c2ccc(Cl)cc2)OC1=O (stereo unspecified) | 188 to 189 °C
49 | COc1cc2c(cc1OC)C(=O)CS[C@@H](C(=O)O)C2 | 223 to 224 °C
50 | OC(CCN1CCN(c2ccccn2)CC1)COc1ccc(F)cc1 (stereo unspecified) | 72 to 73 °C
51 | CC1(C)CC(C)(C)CC2(CCCC(=O)N2)C1 | 126 to 128 °C
